Holding throughout (experiment): NCI-60 cell line screen, 48 h
For assay [1], the system named is HL-60(TB) leukemia.
Assay [2] relates to NCI-H460 lung.
In assay [3] the test system is LOX IMVI melanoma.
Assay [4] concerns MOLT-4 leukemia.
In assay [5] the test system is MDA-MB-435.
Assay [6] relates to DU-145 prostate.
The subject of assay [7] is U251 CNS.
Assay [8] has as its system RPMI-8226 leukemia.
Assay [9] concerns HOP-62 NSCLC.
The subject of assay [10] is HCC-2998 colon.

19 compounds from PubChem BioAssay (NCI) can be followed below.

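1) Cells in 96-well plates. 2) Compound, 48 h, 5 concentrations. 3) Linear interpolation between surrounding doses. 4) Unreached endpoint = highest concentration. Abbreviation: GI50, concentration required for 50% inhibition of growth. TGI is the concentration that stops growth completely.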 Bounds are passed on as bounds.

For `CN(C)c1nc2sc3c(c2c(=O)o1)CCCC3`, the TGI in [1], in [2], in assay [3], in assay [4], in assay [5] and in [6] was greater than 100 µM in each case. Also, the TGI in assay [7], in [8], in assay [9] and in assay [10] was greater than 100 µM throughout.
Consider `Cc1ccc(C)n1-c1ccccc1C1SCCCS1`, for which the TGI in assay [1], in [2], in assay [3], in assay [4], in assay [5] and in assay [6] was greater than 100 µM in each case. The TGI in assay [7], in [8], in [9] and in assay [10] was greater than 100 µM each time.
`CCOC(=O)c1ccc(N=NN(C)C(=O)C(C)N)cc1` (configuration not stated): the TGI in assay [1], in assay [2], in assay [3], in assay [4], in assay [5] and in [6] was greater than 100 µM throughout. Moreover, the TGI in assay [7], in assay [8], in assay [9] and in assay [10] was greater than 100 µM throughout.
In the case of `CCCC(=O)O`, the GI50 was 1120 µM in assay [1], 473 µM in assay [8] and 10800 µM in assay [10]. Besides, the TGI is greater than 18700 µM in assay [1]; greater than 18700 µM in assay [2]; 8470 µM in assay [3]; greater than 18700 µM in assay [4]; greater than 18700 µM in assay [5]; 13200 µM in assay [6]. Besides, the TGI in [7], in assay [9] and in assay [10] was greater than 18700 µM throughout.
Turning to `C=CCC1(O)c2ccccc2C(=O)c2c(O)ccc(O)c21` (configuration not stated), the TGI in [1] was 13 µM; in assay [2] it was 18.3 µM; in assay [3] it was greater than 50.9 µM; in assay [4], greater than 58 µM; in assay [5], 6.43 µM; in [6], 38 µM. The TGI in assay [7] was 24.3 µM; in [8] it was greater than 100 µM; in assay [9] it was greater than 86.8 µM; in [10] it was 15 µM.
With `O=C1Oc2ccccc2C(=O)/C1=C/N1C(=O)N/C(=C\c2ccccc2O)C1=O`, the TGI in assay [1], in assay [2], in assay [3], in assay [4], in assay [5] and in assay [6] was greater than 100 µM throughout. For the same compound, the TGI in assay [7], in assay [8], in [9] and in assay [10] was greater than 100 µM each time.
Regarding `O=C1c2ccccc2C2CNC1(O)c1ccccc12` (configuration not stated), the TGI in assay [1], in [2], in assay [3], in assay [4], in assay [5] and in assay [6] was greater than 100 µM each time. Further, the TGI in assay [7], in assay [8], in [9] and in [10] was greater than 100 µM throughout.
Take `COc1cc(/C=C2/SC(c3ccccc3)N(c3ccc(NC(C)=O)cc3)C2=O)cc(OC)c1OC` (configuration not stated): the TGI in assay [1], in [2], in assay [3], in assay [4], in [5] and in [6] was greater than 100 µM each time. Also, the TGI in assay [7], in assay [8], in assay [9] and in assay [10] was greater than 100 µM each time.
Regarding `O=c1[nH]c(=O)n(C2CC(O)C(CO)O2)cc1I` (configuration not stated), the TGI in assay [1], in assay [2], in [3], in assay [4], in assay [5] and in assay [6] was greater than 100 µM throughout. The TGI in assay [7], in [8], in assay [9] and in [10] was greater than 100 µM each time.
`O=c1cc(CNC2CCCC2)[nH]c(=O)[nH]1`: the TGI in assay [1], in assay [2], in assay [3], in assay [4], in assay [5] and in assay [6] was greater than 100 µM throughout. Moreover, the TGI in assay [7], in assay [8], in assay [9] and in [10] was greater than 100 µM each time.
As to `C=C(C)[C@@H]1CC[C@]2(C(=O)O)CC[C@]3(C)[C@H](CC[C@@H]4[C@@]5(C)CC(=O)C(C)(C)[C@@H]5CC[C@]43C)[C@@H]12`, the TGI in [1] was 1.61 µM; in [2], 10.7 µM; in [3] it was greater than 25 µM; in [4], 14.5 µM; in assay [5], greater than 25 µM; in [6], greater than 25 µM. Besides, the TGI in assay [7] is greater than 25 µM; in assay [8] it was 11.6 µM; in [9], greater than 25 µM; in [10], 12 µM.
For the compound `C=C(C)C(=O)CC[C@@H](C)[C@H]1[C@@H](OC2OC(CO)C(O)C(O)C2O)C[C@@]2(C)[C@@H]3C[C@H](O)C4C(C)(C)[C@@H](OC5OC(CO)C(O)C(O)C5O)CC[C@@]45C[C@@]35CC[C@]12C` (some centres not stated), the TGI in assay [1], in assay [2], in assay [3], in [4], in assay [5] and in assay [6] was greater than 100 µM in each case. In addition, the TGI in assay [7], in assay [8], in assay [9] and in assay [10] was greater than 100 µM in each case.
`O=C(Cn1c(=O)oc2ccc(C(=O)c3ccc(F)cc3)cc21)c1ccc([N+](=O)[O-])cc1`: the TGI in assay [1] was 60 µM; in assay [2], greater than 100 µM; in [3] it was greater than 100 µM; in assay [4] it was greater than 100 µM; in [5], 72.9 µM; in [6] it was greater than 100 µM. In addition, the TGI in assay [7] was greater than 100 µM; in assay [8], greater than 100 µM; in [9], greater than 100 µM; in assay [10], 37.9 µM.
On to `CN(C)CCNc1ccc(C(=O)NCCCN(C)CCCNC(=O)c2ccc(NCCN(C)C)c3c(=O)c4ccccc4[nH]c23)c2[nH]c3ccccc3c(=O)c12`, for which the TGI in assay [1] was determined as 2.74 µM; in assay [2], 1.43 µM; in [3], 0.286 µM; in assay [4], 2.78 µM; in assay [5] it was 0.286 µM; in assay [6], 2.48 µM. In addition, the TGI was found to be 0.589 µM in assay [7], 0.229 µM in assay [8], 1.5 µM in [9] and 0.135 µM in assay [10].
`CN1C/C(=C\c2cccs2)C2=NC(=S)NC(c3cccs3)C2C1` (configuration not stated): the TGI in [1] was 19.1 µM; in assay [2] it was greater than 100 µM; in assay [3], greater than 100 µM; in [4] it was 92 µM; in [5], greater than 100 µM; in assay [6] it was greater than 100 µM. The TGI in assay [7], in assay [8], in assay [9] and in assay [10] was greater than 100 µM throughout.
Regarding `O=C(O)c1ccccc1.[Ag]`, the TGI was greater than 42 µM in assay [1]; 30.1 µM in assay [2]; greater than 66.6 µM in assay [3]; greater than 21.7 µM in assay [4]; 31.7 µM in [5]; 32.1 µM in assay [6]. In addition, the TGI in assay [7] is 35.4 µM; in assay [8], greater than 23.5 µM; in assay [9], 46.3 µM; in assay [10], 37 µM.
On to `O=C(O)[C@H]1[C@@H](C2CCCCC2)O[C@@H](C2CCCCC2)O[C@H]1C(F)(F)F`, for which the TGI is 62.6 µM in assay [1]; 48.4 µM in assay [2]; 36.5 µM in assay [3]; 45 µM in assay [4]; 35.5 µM in assay [5]; greater than 100 µM in [6]. In addition, the TGI in assay [7] amounted to 34.2 µM; in assay [8] it was 45.3 µM; in assay [9], 50.6 µM; in assay [10], 38.8 µM.
`C1=C\SS/C=C\SS/C=C\SS/C=C\SS/1`: the TGI was 58.1 µM in assay [1]; 68.3 µM in assay [2]; greater than 100 µM in assay [3]; greater than 100 µM in assay [4]; greater than 100 µM in assay [5]; greater than 100 µM in [6]. Also, the TGI in [7], in assay [8], in assay [9] and in assay [10] was greater than 100 µM in each case.
Turning to `CCOC(=O)c1cccc(NC(=O)CCl)c1`, the TGI in assay [1] amounted to 13.2 µM; in assay [2], 5.37 µM; in assay [3], 3.89 µM; in assay [4], 27.2 µM; in assay [5] it was 7.41 µM; in assay [6], 22.7 µM. In addition, the TGI in assay [7] worked out at 2.95 µM; in assay [8], 15.9 µM; in assay [9], 6.15 µM; in [10] it was 7.93 µM.
